From PMC5589090 (PLoS Medicine, 2017)
Several values for one entry are separate records, joined by “and”; a condition that tells them apart may be missing. Equal values may be shown once. Read-outs that look alike come from different tables or passages of the source.

What was measured:
[1] = cited from earlier work; for Cmax: read-out: decitabine Cmax
[2] = system: L5178Y mouse lymphoma cells; design: method as in ref 75 (a number printed in a supplementary file, which may have a reference list of its own: not looked up in the article's list); conditions: cited from earlier work
KG1a = conditions: cited from earlier work
[3] = cited from earlier work
testicular cancer = system: testicular cancer; design: method as in ref 92 (a number printed in a supplementary file, which may have a reference list of its own: not looked up in the article's list); conditions: 20% incidence in controls; cited from earlier work
[4] = read-out: decitabine Cmax; 15 mg/m^2 IV over 3 hours Q8 hrs D1-3 or 20 mg/m^2 IV over 1 hour D1-5; ref 105;108;109; cited from earlier work
[5] = Decitabine storage and solution stability; assay type: physicochemical; conditions: 18 months at -20 °C
HbF = HbF levels by HPLC; assay type: in vivo, human
Text: Blood counts, blood chemistries, total bilirubin, HbF, LDH, and D-dimer levels were standard clinical pathology tests through the CLIA-certified Clinical Pathology Laboratory at the University of Illinois at Chicago. […] For quantification of F-cells by flow cytometry, peripheral blood samples were fixed and stained with phycoerythrin-conjugated anti-HbF (Caltag) per manufacturer’s instructions. A normal adult negative control and cord blood positive control were run with each Becton-Dickinson FacsCalibur (Sunnyvale, CA) analysis.

[6] = cited from earlier work; remark: listed apart in the source
[7] = cited from earlier work; remark: listed apart in the source
lung tumor = system: lung tumor; design: method as in ref 91 (a number printed in a supplementary file, which may have a reference list of its own: not looked up in the article's list); conditions: cited from earlier work
[8] = system: multiple intestinal adenomas; design: method as in ref 90 (a number printed in a supplementary file, which may have a reference list of its own: not looked up in the article's list); conditions: cited from earlier work
[9] = Blood chemistries and biomarkers of hemolysis, thrombophilia, inflammation (LDH, total bilirubin, D-dimer, CRP); assay type: in vivo, human; conditions: cohorts 4 and 5
Text: Blood counts, blood chemistries, total bilirubin, HbF, LDH, and D-dimer levels were standard clinical pathology tests through the CLIA-certified Clinical Pathology Laboratory at the University of Illinois at Chicago.

[10] = cited from earlier work; remark: listed apart in the source
[11] = human, po, 0.01 mg/kg
Procedure: To ensure safety in case of this possibility, decitabine pharmacokinetics are measured after single dose oral administration of decitabine and THU.

DNMT1 = target: T1, DNMT1 (Homo sapiens, UniProt P26358); assay: DNMT1 protein measurement by flow cytometry of peripheral blood mononuclear cells; assay type: in vivo
T1 construct: DNMT1 protein levels were measured by flow cytometric analysis of peripheral blood mononuclear cells; endogenous in cells; host or cells: peripheral blood mononuclear cells of sickle cell disease patients (ex vivo, after in vivo dosing)
T1 sequence (P26358 whole entry): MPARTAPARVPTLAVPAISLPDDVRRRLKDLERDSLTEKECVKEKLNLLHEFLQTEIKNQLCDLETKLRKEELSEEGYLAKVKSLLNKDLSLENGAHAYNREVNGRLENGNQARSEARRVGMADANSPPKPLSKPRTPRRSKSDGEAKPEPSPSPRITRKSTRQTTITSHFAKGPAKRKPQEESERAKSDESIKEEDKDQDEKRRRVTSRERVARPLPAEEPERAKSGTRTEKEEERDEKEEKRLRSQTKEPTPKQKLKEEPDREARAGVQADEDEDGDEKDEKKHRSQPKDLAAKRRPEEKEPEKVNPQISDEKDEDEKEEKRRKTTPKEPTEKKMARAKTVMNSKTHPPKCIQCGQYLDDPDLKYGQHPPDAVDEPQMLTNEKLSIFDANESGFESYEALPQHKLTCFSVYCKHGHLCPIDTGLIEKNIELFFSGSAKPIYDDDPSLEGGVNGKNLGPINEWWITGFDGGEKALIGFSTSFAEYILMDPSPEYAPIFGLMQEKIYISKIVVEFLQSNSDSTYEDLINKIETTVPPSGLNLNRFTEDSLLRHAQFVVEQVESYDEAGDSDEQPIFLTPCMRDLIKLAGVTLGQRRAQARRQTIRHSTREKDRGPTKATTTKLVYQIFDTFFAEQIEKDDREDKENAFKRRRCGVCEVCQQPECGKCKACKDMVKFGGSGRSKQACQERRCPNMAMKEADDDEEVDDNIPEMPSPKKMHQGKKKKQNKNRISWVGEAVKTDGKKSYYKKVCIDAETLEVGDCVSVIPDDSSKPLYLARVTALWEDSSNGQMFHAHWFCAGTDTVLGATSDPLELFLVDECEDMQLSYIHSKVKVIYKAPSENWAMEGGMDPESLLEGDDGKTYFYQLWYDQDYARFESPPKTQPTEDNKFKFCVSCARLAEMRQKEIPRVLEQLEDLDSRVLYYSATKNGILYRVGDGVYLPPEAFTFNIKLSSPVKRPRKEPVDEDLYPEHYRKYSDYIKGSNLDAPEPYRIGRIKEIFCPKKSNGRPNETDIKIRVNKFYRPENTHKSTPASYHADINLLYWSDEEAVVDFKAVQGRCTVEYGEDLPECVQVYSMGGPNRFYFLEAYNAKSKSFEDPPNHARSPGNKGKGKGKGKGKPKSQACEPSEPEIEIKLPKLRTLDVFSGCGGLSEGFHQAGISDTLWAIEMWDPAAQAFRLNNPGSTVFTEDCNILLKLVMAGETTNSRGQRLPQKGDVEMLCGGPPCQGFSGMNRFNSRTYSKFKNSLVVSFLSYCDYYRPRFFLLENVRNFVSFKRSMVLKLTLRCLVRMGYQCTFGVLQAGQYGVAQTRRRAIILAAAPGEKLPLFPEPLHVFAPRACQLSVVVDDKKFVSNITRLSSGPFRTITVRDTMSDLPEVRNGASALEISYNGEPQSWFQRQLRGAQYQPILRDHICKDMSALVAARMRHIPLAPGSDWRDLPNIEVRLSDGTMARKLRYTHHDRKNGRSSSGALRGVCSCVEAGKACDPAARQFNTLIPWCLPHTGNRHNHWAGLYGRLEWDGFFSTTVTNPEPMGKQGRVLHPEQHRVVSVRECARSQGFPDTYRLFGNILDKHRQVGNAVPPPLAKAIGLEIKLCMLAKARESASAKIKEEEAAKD
Procedure: Phlebotomized whole blood was layered over Histopaque. The interface was collected and washed with phosphate-buffered saline (PBS). Cell suspensions of approximately 200,000 cells were fixed with 4% paraformaldehyde for 30 minutes on ice. Cells were spun down, washed in PBS, and suspended in 70% ethanol and stored at −20°C for subsequent batched analyses. […] All procedures were performed on ice and all centrifugations were done at 400 g for 5 minutes at 4°C. The pellet was hydrated overnight in 1 ml sterile, distilled water to partially reverse the alcohol fixation. After incubation, samples were centrifuged and then resuspended in 1 ml PBS/2% bovine serum albumin (BSA) and incubated for 30 minutes to block nonspecific antibody binding. Following centrifugation, unlabeled anti-DNMT1 antibody [EPR 3522] […] Samples were washed 3 times: each wash was a 10-minute incubation with 1 ml PBS/2% BSA followed by centrifugation. After the third wash, CD64-Alexa Fluor 488 (5 μl/test; BioLegend; catalog no. 305010), Cyclin A2-PE (4μl/test; Beckman Coulter; catalog no. B15092), CD33-APC/Cy7 (5 μl/test; BioLegend; catalog no. 366614), and F(ab′)2-goat anti-rabbit IgG (H+L) Alexa Fluor 647 (0.0938 μg/test; Life Technologies; catalog no. A21246) were added in a final volume of 100 μl and incubated for 1 hour. After the incubation and without washing, 3.5 ml PBS containing 0.5 μg/ml DAPI was added to each sample. All samples were analyzed on an Attune NxT Acoustic Focusing Cytometer (Life Technologies) at a flow rate of 500 μl per minute. Compensation was performed with CompBeads Set Anti-Mouse Ig, κ (BD Biosciences; catalog no. 552843) and Flow Cytometry Protein G Antibody Binding Beads (Bangs Laboratories, Inc.; catalog no. 554/11863).
Data were normalized to the instrument using 8-peak SPHERO Rainbow Calibration Particles (Spherotech; catalog no. RCP-30-5A). WinList 3D v8.0 (Verity Software House) was used for post-acquisition analysis. Doublet discrimination was performed using the DAPI area and peak signals. […]

[12] = per patient, SC 0.2 mg/kg 2x/week, 0.2 mg/kg

SMILES: Nc1ncn([C@H]2C[C@H](O)[C@@H](CO)O2)c(=O)n1 [decitabine, 5-aza-2’-deoxycytidine]
- lethal toxicity ([1]; decitabine 1.0 mg/kg + THU 167 mg/kg 2X/week for 9 weeks, ref Investigators Brochure): lethal toxicity in eight females and one male
- toxicity in bone marrow, lymphoid and testicular tissue ([1]; decitabine 0.2 and 0.4 mg/kg + THU, ref Investigators Brochure): reversible toxicity
- Cmax ([1]; low dose 0.2 mg/kg + THU 167 mg/kg oral gavage 2X/week, ref Investigators Brochure): 1500 nM
- Cmax ([1]; mid dose 0.4 mg/kg + THU 167 mg/kg oral gavage 2X/week, ref Investigators Brochure): 2900 nM
- Cmax ([1]; mouse, in vivo): 8600 nM
- NOAEL ([1]; ref Investigators Brochure): no NOAEL
- decrease of decitabine Cmax and AUC cal,0→180 on day 58 compared to day 1 ([1]; ref Investigators Brochure): ~ 30%
- mutations as measured by 6TG resistance [2]: did not produce mutations
- mutations as measured by tri-fluorothymidine resistance ([2]; thymidine kinase locus): did induce mutations
- DNMT1 protein expression (KG1a; 0.3 µM daily for 2-3 days): profoundly decreased DNMT1 protein expression
- viability (KG1a; 0.3 µM daily for 2-3 days): did not decrease the viability
- phospho-H2AX (KG1a; 0.3 µM, 3 days of treatment): an increase in phospho-H2AX was noted
- fetal defects ([3]; pregnant mice, dose and gestation day related): increased fetal defects
- fertility in off-spring after in utero exposure ([3]; primarily in males): decreased fertility in off-spring
- testicular cancer occurrence (testicular cancer): 0%
- Cmax [4]: ≤ 2700 nM
- drug substance stability on storage [5]: no change in appearance, assay or impurities
- HbF% increases by HPLC (HbF; decitabine 0.08 mg/kg and […] (cohorts 4 and 5)): increases by HPLC were observed
- HbF% increases by HPLC (HbF; other decitabine dose levels (cohorts 1-3)): not with other decitabine dose levels
- total hemoglobin (Hb), peak ([6]; SC 0.2 mg/kg 2x/week for 12 weeks, five patients, baseline 7.88 ± 0.88): 9.04 ± 0.77 g/dL
- Absolute Retic count B/L ([6]; baseline, per patient): 1.65e+11 L⁻¹ and 1.55e+11 L⁻¹ and 1.63e+11 L⁻¹ and 1.96e+11 L⁻¹ and 1.06e+11 L⁻¹
- Annexin-V RBC B/L ([6]; baseline, per patient): 0% and 2% and 0.6% and 3.4% and 0.8%
- EPO B/L ([6]; baseline, per patient): 197.8 mIU/ml and 25 mIU/ml and 241.4 mIU/ml and 186 mIU/ml and 86.6 mIU/ml
- HbF B/L ([6]; baseline, per patient): 7 g/dL and 0.1 g/dL and 2.8 g/dL and 4.8 g/dL and 3.6 g/dL
- Hemoglobin B/L ([6]; baseline, per patient): 8.8 g/dL and 10.7 g/dL and 6.1 g/dL and 7.8 g/dL and 6 g/dL
- Indirect Bilirubin B/L ([6]; baseline, per patient): 25.7 µmol/L and 104.3 µmol/L and 89 µmol/L and 33 µmol/L and 20 µmol/L
- Normochromic Normovolumetric Cells B/L ([6]; baseline, per patient): 36% and 67.4% and 65.4% and 63.9% and 61.2%
- Serum LDH B/L ([6]; baseline, per patient): 893 U/L and 596 U/L and 458 U/L and 192 U/L and 258 U/L
- genotoxicity (erythrocyte micronucleus, VDJ recombination assay) [6]: without erythrocyte micronucleus or VDJ recombination assay evidence of genotoxicity
- Increases in Hb achieved ([6]; in two of the five patients): ≥ 1.5 g/dL
- Absolute Retic count Nadir [6, 12]: 1.35e+11 L⁻¹ and 1.6e+11 L⁻¹ and 1.16e+11 L⁻¹ and 1.25e+11 L⁻¹ and 7.9e+10 L⁻¹
- Absolute Retic count Wk 12 [6, 12]: 1.35e+11 L⁻¹ and 1.6e+11 L⁻¹ and 1.16e+11 L⁻¹ and 1.45e+11 L⁻¹ and 7.9e+10 L⁻¹
- Annexin-V RBC Nadir [6, 12]: 0% and 0.1% and 0.4%
- Annexin-V RBC Wk 12 [6, 12]: 0.5% and 0.7% and 0.1% and 2.6% and 1.1%
- EPO Nadir [6, 12]: 117.2 mIU/ml and 17.1 mIU/ml and 131.4 mIU/ml and 180.7 mIU/ml and 71.5 mIU/ml
- EPO Wk 12 [6, 12]: 117.2 mIU/ml and 24.4 mIU/ml and 238.5 mIU/ml and 340.5 mIU/ml and 71.5 mIU/ml
- HbF Peak [6, 12]: 7.5 g/dL and 0.7 g/dL and 3.5 g/dL and 5.6 g/dL and 4.1 g/dL
- HbF Wk 12 [6, 12]: 7.1 g/dL and 0.7 g/dL and 3.4 g/dL and 5.6 g/dL and 3.6 g/dL
- Hemoglobin Peak [6, 12]: 9.4 g/dL and 11.8 g/dL and 7.7 g/dL and 8.7 g/dL and 7.6 g/dL
- Hemoglobin Wk 12 [6, 12]: 9.4 g/dL and 11.8 g/dL and 6.4 g/dL and 8.7 g/dL and 7.5 g/dL
- Indirect Bilirubin Nadir [6, 12]: 27.4 µmol/L and 83.8 µmol/L and 48 µmol/L and 18 µmol/L and 8 µmol/L
- Indirect Bilirubin Wk 12 [6, 12]: 30.8 µmol/L and 83.8 µmol/L and 48 µmol/L and 33 µmol/L and 10 µmol/L
- Neutrophil count Nadir [6, 12]: 2.82e+09 L⁻¹ and 2.2e+09 L⁻¹ and 5.2e+09 L⁻¹ and 2.1e+09 L⁻¹ and 4.5e+09 L⁻¹
- Neutrophil count Wk 12 [6, 12]: 4.62e+09 L⁻¹ and 2.2e+09 L⁻¹ and 7.9e+09 L⁻¹ and 1.03e+10 L⁻¹ and 5.7e+09 L⁻¹
- Normochromic Normovolumetric Cells Peak [6, 12]: 45.9% and 70% and 70.9% and 72.4%
- Normochromic Normovolumetric Cells Wk 12 [6, 12]: 45.9% and 69% and 70.5% and 66.4% and 68.1%
- Platelet count Peak [6, 12]: 2.96e+11 L⁻¹ and 1.038e+12 L⁻¹ and 1.265e+12 L⁻¹ and 8.01e+11 L⁻¹ and 1.301e+12 L⁻¹
- Platelet count Wk 12 [6, 12]: 2.81e+11 L⁻¹ and 1.038e+12 L⁻¹ and 1.265e+12 L⁻¹ and 7.56e+11 L⁻¹ and 1.301e+12 L⁻¹
- Serum LDH Nadir [6, 12]: 660 U/L and 541 U/L and 260 U/L and 149 U/L and 204 U/L
- Serum LDH Wk 12 [6, 12]: 660 U/L and 556 U/L and 324 U/L and 167 U/L and 204 U/L
- plasma t ½ ([7]; Fig 1C, decitabine alone): < 15 min
- decitabine half-life in vivo ([7]; abbreviated by CDA, ref 27;28): < 20 min
- oral bioavailability ([7]; decitabine alone): negligible
- plasma half-life ([7]; decitabine alone): only minutes
- Cmax ([7]; read-out: Cmax that correlates with nucleotide pool imbalance, DNA-damage, and cytotoxicity): > 500 nM
- reduction in tumor incidence (lung tumor): 23%
- reduction in tumor multiplicity (lung tumor): 42%
- tumor development [8]: do not develop tumors
- serum LDH ([9]; biomarker of hemolysis): improved
- total bilirubin ([9]; biomarker of hemolysis): improved
- CRP levels ([9]; biomarker of inflammation): improved
- D-dimer ([9]; biomarker of thrombophilia): improved
- greater decitabine exposure in rodents versus human dose for dose [10]: more than 100 fold
- Cmax [11]: ≤ 0.74 nM
- DNMT1 protein decrease from baseline in PBMC (DNMT1; decitabine 0.08 mg/kg (cohort 4) after THU 10 mg/kg 2X/week, all patients): approximately 50%
- DNMT1 protein decrease from baseline in PBMC (DNMT1; decitabine […] (cohort 5) after THU 10 mg/kg 2X/week, 2 of the 3 patients): > 75%
- DNMT1 protein decrease from baseline in PBMC (DNMT1; lower decitabine doses (cohorts 1-3)): not in patients with lower decitabine doses
